What is called Ki is a measure of affinity in units of concentration, obtained from inhibition or displacement. A higher Ki goes with weaker binding.

Here are results for one compound from ChEMBL document CHEMBL2073944 (Eur J Pharmacol, 2003).

Holding throughout (format): functional, cell-based
For series [1], the target named is T1, Solute carrier family 22 member 11 (Homo sapiens, UniProt Q9NSA0).
T1 sequence (Q9NSA0 whole entry): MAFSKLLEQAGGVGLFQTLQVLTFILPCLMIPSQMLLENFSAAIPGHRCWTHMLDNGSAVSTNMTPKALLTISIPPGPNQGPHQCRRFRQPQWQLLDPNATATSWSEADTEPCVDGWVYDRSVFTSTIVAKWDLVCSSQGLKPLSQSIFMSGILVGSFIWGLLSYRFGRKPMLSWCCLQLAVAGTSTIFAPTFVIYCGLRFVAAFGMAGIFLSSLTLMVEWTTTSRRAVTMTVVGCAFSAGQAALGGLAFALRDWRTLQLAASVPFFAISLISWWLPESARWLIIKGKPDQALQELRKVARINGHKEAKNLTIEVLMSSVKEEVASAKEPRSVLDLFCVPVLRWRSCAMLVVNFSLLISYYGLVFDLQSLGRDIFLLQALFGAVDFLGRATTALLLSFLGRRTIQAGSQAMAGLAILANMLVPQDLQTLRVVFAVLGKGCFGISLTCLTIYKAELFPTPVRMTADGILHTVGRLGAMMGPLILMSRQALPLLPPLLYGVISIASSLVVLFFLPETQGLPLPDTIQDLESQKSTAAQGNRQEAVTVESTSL
The series is described as follows: TP_TRANSPORTER: uptake in OAT4-S2 cells. The following applies: mouse.

The target of series [2] is T2, Organic anion transporter 3 (Homo sapiens, UniProt Q8TCC7).
T2 sequence (Q8TCC7 whole entry): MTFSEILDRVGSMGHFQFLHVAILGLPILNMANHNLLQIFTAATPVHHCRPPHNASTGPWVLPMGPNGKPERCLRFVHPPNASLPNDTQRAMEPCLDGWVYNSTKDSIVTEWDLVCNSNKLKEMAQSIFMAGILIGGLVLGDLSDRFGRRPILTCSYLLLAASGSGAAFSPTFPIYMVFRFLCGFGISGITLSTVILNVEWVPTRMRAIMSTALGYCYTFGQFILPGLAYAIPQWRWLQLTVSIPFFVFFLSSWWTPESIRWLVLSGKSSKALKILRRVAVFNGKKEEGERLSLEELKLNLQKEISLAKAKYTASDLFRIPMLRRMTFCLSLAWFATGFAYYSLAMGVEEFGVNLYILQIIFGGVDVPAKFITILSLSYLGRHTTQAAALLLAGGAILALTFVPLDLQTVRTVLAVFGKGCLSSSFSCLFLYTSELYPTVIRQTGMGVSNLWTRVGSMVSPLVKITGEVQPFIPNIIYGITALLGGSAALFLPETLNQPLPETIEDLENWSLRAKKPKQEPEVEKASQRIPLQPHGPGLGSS
The series is described as follows: TP_TRANSPORTER: uptake in OAT3-S2 cells. The note with it: mouse.

The target of series [3] is T1, Solute carrier family 22 member 11. The series is described as follows: TP_TRANSPORTER: uptake&inhibition of estrone sulfate in OAT4-S2 cells.
Series [4] shares this target. The series is described as follows: TP_TRANSPORTER: inhibition of E1S uptake (E1S: 5 uM, indoxyl sulfate:500 uM) in S2 cells expressing human-OAT4.

Where a name gives a salt, the structure may show the parent alone.

On to `O=S(=O)(O)Oc1c[nH]c2ccccc12` [INDOXYL SULFATE], for which the Activity entry in series [1] and in series [2] was “substrate []” in each case. The Ki in series [3] and in series [4] was 181 µM in each case.
